Several values for one entry are separate records, joined by “and”; a condition that tells them apart may be missing. Equal values may be shown once. Read-outs that look alike come from different tables or passages of the source.
How the values were obtained:
S1P1 = S1P1 (Homo sapiens, UniProt P21453); assay: competitive S1Ps cell membrane binding assay against [32P]S1P, S1P1
From the text: (§1) One way to measure affinity is use of a general competition binding assay.

S1P2 = S1P2 (Homo sapiens, UniProt O95136); assay: competitive S1Ps cell membrane binding assay against [32P]S1P, S1P2; conditions: Table 6
Sequence of S1P2 (O95136 whole entry, species assumed): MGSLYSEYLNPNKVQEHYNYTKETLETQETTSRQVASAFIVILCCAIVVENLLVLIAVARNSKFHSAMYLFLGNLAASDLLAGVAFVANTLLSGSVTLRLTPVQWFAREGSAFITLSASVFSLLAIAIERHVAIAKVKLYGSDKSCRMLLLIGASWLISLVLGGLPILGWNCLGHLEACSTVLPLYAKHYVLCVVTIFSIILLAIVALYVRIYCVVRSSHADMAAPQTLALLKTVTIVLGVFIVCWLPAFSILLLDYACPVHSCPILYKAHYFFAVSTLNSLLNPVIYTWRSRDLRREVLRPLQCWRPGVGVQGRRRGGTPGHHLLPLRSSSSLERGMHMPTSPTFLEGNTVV

S1P4 = target: T1, S1P4 (Homo sapiens, UniProt O95977); assay: competitive S1Ps cell membrane binding assay against [32P]S1P, S1P4; conditions: Table 6; read-out: IC50 for S1P4
T1 sequence (O95977 1-384): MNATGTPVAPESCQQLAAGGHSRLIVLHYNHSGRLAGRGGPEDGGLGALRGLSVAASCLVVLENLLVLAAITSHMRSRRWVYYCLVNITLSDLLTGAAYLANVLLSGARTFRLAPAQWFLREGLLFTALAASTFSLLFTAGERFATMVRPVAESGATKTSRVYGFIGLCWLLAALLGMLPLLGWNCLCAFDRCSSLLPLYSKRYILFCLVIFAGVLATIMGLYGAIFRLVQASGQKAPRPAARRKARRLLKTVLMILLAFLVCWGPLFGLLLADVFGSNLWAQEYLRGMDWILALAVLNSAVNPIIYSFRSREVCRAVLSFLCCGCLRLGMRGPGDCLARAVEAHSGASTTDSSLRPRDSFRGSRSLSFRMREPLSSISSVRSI

S1P3 = S1P3 (Homo sapiens, UniProt Q99500); assay: competitive S1Ps cell membrane binding assay against [32P]S1P, S1P3; conditions: Table 6
Sequence of S1P3 (Q99500 whole entry, species assumed): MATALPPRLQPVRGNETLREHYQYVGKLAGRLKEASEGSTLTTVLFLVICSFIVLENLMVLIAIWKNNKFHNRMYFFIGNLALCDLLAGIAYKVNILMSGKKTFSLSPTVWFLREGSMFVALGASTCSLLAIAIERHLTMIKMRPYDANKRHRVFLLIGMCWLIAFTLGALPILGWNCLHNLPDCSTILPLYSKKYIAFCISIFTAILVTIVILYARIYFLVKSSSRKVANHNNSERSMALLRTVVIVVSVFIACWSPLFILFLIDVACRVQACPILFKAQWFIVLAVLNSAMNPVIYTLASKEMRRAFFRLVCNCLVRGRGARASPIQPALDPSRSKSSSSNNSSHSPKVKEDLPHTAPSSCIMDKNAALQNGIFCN

S1P5 = S1P5 (Homo sapiens, UniProt Q9H228); assay: competitive S1Ps cell membrane binding assay against [32P]S1P, S1P5
Sequence of S1P5 (Q9H228 whole entry, species assumed): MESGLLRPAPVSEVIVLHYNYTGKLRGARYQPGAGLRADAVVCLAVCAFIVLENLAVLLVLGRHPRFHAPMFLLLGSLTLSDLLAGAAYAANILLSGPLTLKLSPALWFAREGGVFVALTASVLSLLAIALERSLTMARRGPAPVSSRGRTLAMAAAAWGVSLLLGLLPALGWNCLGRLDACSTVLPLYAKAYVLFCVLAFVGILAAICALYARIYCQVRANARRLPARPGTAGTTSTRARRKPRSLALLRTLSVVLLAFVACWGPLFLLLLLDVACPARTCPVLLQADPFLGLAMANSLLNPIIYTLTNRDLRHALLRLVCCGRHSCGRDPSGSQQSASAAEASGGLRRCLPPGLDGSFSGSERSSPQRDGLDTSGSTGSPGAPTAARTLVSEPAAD
From the text: as §1

[1] = Human biodistribution / dosimetry PET study of [11C]CS1P1; type: in vivo
Experimental: One human (88 kg, SIEMENS, patient ID: 1179101) was imaged with a dose of 7.2 mCi (FIG. 10A). Good uptake was found in the brain (FIG. 10B). Residence time and total absorbed dose in individual organs was also measured (FIG. 10C and Table 4).

[2] = MicroPET brain study in cynomolgus macaque; conditions: for brain uptake in nonhuman primates: MicroPET, in words
Experimental: Using a Focus 220 microPET scanner to collect dynamic scans for 2 hours after intravenous injection of ˜0.35 GBq dose into male macaques. Radiometabolites were measured from arterial blood samples collected at 5, 15, 30, and 60 min post-injection of radiotracer. The HPLC eluent was collected, and fractions were counted in a gamma counter.
Male macaques (˜10 kg) were used for PET imaging data acquisition with a microPET Focus 220 scanner (Siemens Inc., Knoxville, TN). Animals were anesthetized using ketamine and glycopyrrolate and maintained with inhalation of isoflurane. Core temperature was kept at 37° C. with a heated water blanket. The head was secured in a customized head holder. […] Emission data were corrected for dead time, scatter, and attenuation and then reconstructed. […] Predefined brain regions of interest from the template were applied to the co-registered PET image to obtain regional time-activity curves. The measurement of the brain uptake of radiotracer was standardized to body weight and the dose of radioactivity injected to yield a standardized uptake value (SUV).
The brain uptakes of these tracers were measured by Focus 220 microPET scanner to collect dynamic scans for 2 hours after intravenous injection of ˜0.35 GBq dose into male cynomolgus macaques (8-9 kg).

[3] = read-out: IC50 (nM) S1P1, Table 5
[4] = Table 5, read-out: IC50 (nM) S1P5

Sequence of S1P1 (P21453 whole entry, species assumed): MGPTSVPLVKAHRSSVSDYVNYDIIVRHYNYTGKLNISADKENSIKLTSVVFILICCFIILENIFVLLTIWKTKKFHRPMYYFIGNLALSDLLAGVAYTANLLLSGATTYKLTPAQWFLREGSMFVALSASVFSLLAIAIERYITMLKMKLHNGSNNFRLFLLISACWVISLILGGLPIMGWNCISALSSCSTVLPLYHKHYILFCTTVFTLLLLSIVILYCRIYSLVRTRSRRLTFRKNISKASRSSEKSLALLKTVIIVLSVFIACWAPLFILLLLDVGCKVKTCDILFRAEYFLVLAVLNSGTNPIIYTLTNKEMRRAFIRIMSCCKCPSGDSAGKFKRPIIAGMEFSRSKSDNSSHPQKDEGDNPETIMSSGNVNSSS

Row | Structure (SMILES) | IC50 (S1P1; IC50 (nM) S1P1, Table 5) | IC50 (S1P5; [4]) | other results
1 | CNc1cccc(-c2noc(-c3ccc(OCCF)c(C(F)(F)F)c3)n2)c1 [TZ82-41] | 82 ± 1.8 nM |  | 
2 | Nc1cccc(-c2noc(-c3ccc(OCCF)c(C(F)(F)F)c3)n2)c1 [TZ82-42] | 29 ± 0.5 nM |  | 
3 | Nc1ccc(-c2noc(-c3ccc(OCCF)c(C(F)(F)F)c3)n2)cc1 [TZ82-43] | 44 ± 0.6 nM |  | 
4 | Cc1ccccc1-c1ccc(-c2nc(-c3ccc(CN(C)CCO)c(F)c3)no2)cc1C(F)(F)F [TZ82-51] |  |  | IC50 (S1P2): > 1000 nM; IC50 (S1P4): > 1000 nM; IC50 (S1P3): 454 nM
5 | Cc1ccccc1-c1ccc(-c2nc(-c3ccc(CN(C)CCCO)c(F)c3)no2)cc1C(F)(F)F [TZ82-52] |  |  | IC50 (S1P2): > 1000 nM; IC50 (S1P4): > 1000 nM; IC50 (S1P3): 418 nM
6 | Cc1ccccc1-c1ccc(-c2nc(-c3ccc(CN(C)CCCCO)c(F)c3)no2)cc1C(F)(F)F [TZ82-53] |  |  | IC50 (S1P1; [3]): 4.9 nM
7 | CN(CCC(=O)O)Cc1ccc(-c2noc(-c3ccc(OCc4cccnc4F)c(C(F)(F)F)c3)n2)cc1F [TZ82-55] | 159 nM | 74.4 nM | 
8 | CN(CCC(=O)O)Cc1ccc(-c2noc(-c3ccc(OCc4cccc(F)n4)c(C(F)(F)F)c3)n2)cc1F [TZ82-56] | 55.4 nM | 39.3 nM | 
9 | OCc1ccc(-c2noc(-c3ccc(OCc4cccnc4F)c(C(F)(F)F)c3)n2)cc1 [TZ82-91] | 239 nM | 182 nM | 
10 | OCc1ccc(-c2noc(-c3ccc(OCc4cccc(F)n4)c(C(F)(F)F)c3)n2)cc1 [TZ82-92] | 243 nM | 934 nM | 
11 | CN(CCCO)Cc1ccc(-c2noc(-c3ccc(OCCF)c(C(F)(F)F)c3)n2)cc1F [TZ82-112] | 15.8 nM | 234 nM | IC50 (S1P1; IC50 for S1P1 (nM), Table 6, single determinations): 15.8 nM and 2.03 nM and 8.17 nM; IC50 (S1P2): > 1000 nM; IC50 (S1P4): > 1000 nM; IC50 (S1P3): 746 nM; IC50 (S1P5; Table 6, read-out: IC50 for S1P5): > 1000 nM
12 | CN(CCO)Cc1ccc(-c2noc(-c3ccc(OCCF)c(C(F)(F)F)c3)n2)cc1F [TZ82-114] | 14.6 nM | 120 nM | 
13 | CN(CCCCO)Cc1ccc(-c2noc(-c3ccc(OCCF)c(C(F)(F)F)c3)n2)cc1F [TZ82-115] |  | 721 nM | 
14 | CN(CCCO)Cc1ccc(-c2noc(-c3ccc(OCCF)c(C(F)(F)F)c3)n2)cc1 [TZ82-124] |  | 450 nM | 
15 | COc1ccc(-c2nc(-c3ccc(CN(C)CCCO)cc3)no2)cc1C(F)(F)F [TZ82-126] |  | 1940 nM | 
16 | Cc1ccccc1-c1ccc(-c2nc(-c3ccc(CN([11CH3])CCC(=O)O)c(F)c3)no2)cc1C(F)(F)F [[^11C]CS1P1] |  |  | total absorbed dose ([1]; Brain, human): 1.02 ± 0.1 μGy/MBq; total absorbed dose ([1]; Gall bladder, human): 4.82 ± 0.19 μGy/MBq; total absorbed dose ([1]; Heart wall, human): 2.06 ± 0.13 μGy/MBq; total absorbed dose ([1]; Kidneys, human): 4.66 ± 0.22 μGy/MBq; total absorbed dose ([1]; Liver, human): 9.88 ± 0.03 μGy/MBq; total absorbed dose ([1]; Lung, human): 2.13 ± 0.56 μGy/MBq; total absorbed dose ([1]; Pancreas, human): 2.22 ± 0.07 μGy/MBq; total absorbed dose ([1]; Spleen, human): 3.09 ± 0.35 μGy/MBq; total absorbed dose ([1]; Urinary bladder, human): 0.48 ± 0.32 μGy/MBq; total human effective dose ([1]; administration of 10 mCi (370 MBq)): < 0.6 mSv; Effective does (μSv/MBq) ([1]; human): 1.60 ± 0.15 μSv/MBq; safety of imaging for clinical PET studies ([1]; human, in words): safe; brain uptake, maximum SUV value ([2]; macaque brain, from 20 to 120 min post-injection): ~2.3
17 | Cc1ccccc1-c1ccc(-c2nc(-c3ccc(CN(C)CC(=O)O)c([18F])c3)no2)cc1C(F)(F)F [[^18F]TZ8247] |  |  | brain uptake in nonhuman primates [2]: high brain uptake
18 | Cc1ccccc1-c1ccc(-c2nc(-c3ccc(CN(C)CCCC(=O)O)c([18F])c3)no2)cc1C(F)(F)F [[^18F]TZ8248] |  |  | brain uptake in nonhuman primates [2]: high brain uptake; brain uptake, standard uptake value (SUV) ([2]; macaque brain, 120 min post-injection): ~2.8

Now from value to molecule, other results behind:

Row | IC50 (S1P1; IC50 (nM) S1P1, Table 5) | IC50 (S1P5; [4]) | Structure (SMILES) | other results
19 | 2.1 nM | 11 nM | Cc1ccccc1-c1ccc(-c2nc(-c3ccc(CN(C)CCC(=O)O)c(Br)c3)no2)cc1C(F)(F)F [TZ82-65] | 
20 | 2.8 nM |  | Cc1ccccc1-c1ccc(-c2nc(-c3ccc(COCCCO)c(F)c3)no2)cc1C(F)(F)F [TZ82-78] | 
21 | 0.7 nM | 7.2 nM | Cc1ccccc1-c1ccc(-c2nc(-c3ccc(CNCCC(=O)O)c(F)c3)no2)cc1C(F)(F)F [TZ82-94] | 
22 |  | 12.8 nM | Cc1ccccc1-c1ccc(-c2nc(-c3ccc(CNCCCO)c(F)c3)no2)cc1C(F)(F)F [TZ82-95] | IC50 (S1P1; [3]): 2.1 nM
23 | 2.3 nM |  | Cc1ccccc1-c1ccc(-c2nc(-c3ccc(CN(C)CCS(=O)(=O)O)c(F)c3)no2)cc1C(F)(F)F [TZ82-101] | 
24 | 23.8 nM |  | Cc1ccccc1-c1ccc(-c2nc(-c3ccc(CN(C)CCNC(=O)OC(C)(C)C)c(F)c3)no2)cc1C(F)(F)F [TZ82-102] | 
25 | 8.7 nM |  | Cc1ccccc1-c1ccc(-c2nc(-c3ccc(CNO)c(F)c3)no2)cc1C(F)(F)F [TZ82-105] | 
26 | 13.4 nM |  | CNCc1ccc(-c2noc(-c3ccc(OCCF)c(C(F)(F)F)c3)n2)cc1F [TZ82-110] | 
27 | 3 nM |  | CNC(=O)CCN(C)Cc1ccc(-c2noc(-c3ccc(-c4ccccc4C)c(C(F)(F)F)c3)n2)cc1F [TZ82-118] | 

— patent publication US20240228448A1 (Washington University, priority 2021, published 2024)
